From patent publication US6462064B1, “Apoptosis inducing adamantyl derivatives and their usage as anti-cancer agents, especially for cervical cancers and dysplasias” (Galderma Research & Development S.N.C., priority 1996, dated 2002)
“Also recorded” adds a separate entry of the source.

Tests used:
[1] = system: cervical cancer cell lines; test: Apoptosis, cellular DNA fragmentation ELISA (FIG. 8); format: cell-based, human; settings: eighteen hours; adapalene 1, 5 and 10 μM, tRA 10 μM, ceramide 0.5 mM
Experimental: In this experiment cells were labeled with BrdU for six hours. After labeling, cells were treated with vehicle (DM50), or with 10 μM tRA, 0.5 mM ceramide or doses of adapalene of 1, 5 and 10 μM for eighteen hours. Apoptosis was measured using a cellular DNA fragmentation ELISA kit (available from Boehringer). […] Therein, one unit represents the value obtained from cells grown in the presence of vehicle alone.

[2] = system: panel of human tumor cell lines; test: Cell-based high throughput screening assays, percentage of surviving cells; settings: active = percentage survival of less than 80; FIG. 1
Experimental: The anti-cancer activity of various adamantyl retinoid compounds according to the invention was compared to all-trans-retinoic acid using cell-based high throughput screening assays. Specifically, the following compounds were tested in such assays: all-trans-retinoic acid, 6[3(1-adamantyl)-4-methoxyphenyl]-2-naphthoic acid, 2-[3-(1-adamantyl)-4-methoxyphenyl]-5-benzimidazole carboxylic acid, 6-[3-(1-adamantyl)-4-hydroxy-5-methoxyphenyl]-2-naphthoic acid, 6-[3-(1-adamantyl)-4-acetoxymethylphenyl]-2-naphthoic acid and 6-[3-(1-adamantyl)-4,5-methylenedioxyphenyl]-2-naphthoic acid.
These compounds were tested against a panel of human tumor cell lines having a variety of tissue origins, and having distinct tumor characteristics. The tumor cell cultures were exposed to the above retinoid compounds for a specific duration. After such exposure, the percentage of surviving cells was then measured using standard assays.

[3] = system: various human cancer cell lines; test: Anti-cancer activity against human cancer cell lines over a concentration range (FIGS. 2-4); format: cell-based; settings: retinoid concentrations 10^−9 M to 10^−5 M
Excerpt: FIG. 2 compares the activity of selected adamantyl retinoids according to the invention and all-trans-retinoic acid against a human non-small lung carcinoma cell line.
FIG. 3 compares the activity of selected adamantyl retinoids according to the invention and all-trans-retinoic acid against human prostate adenocarcinoma, human metastatic prostate adenocarcinoma, and human prostate carcinoma cell lines.
FIG. 4 compares the activity of selected adamantyl retinoids according to the invention and all-trans-retinoic acid against a human liver cancer cell line.

[4] = system: human cervical cancer cell lines (C33A cells and Caski cells); test: Proliferation of human cervical cancer cell lines (Example 33, FIG. 7); format: cell-based
Experimental: Another experiment was also conducted to compare the effect of three different retinoid compounds according to the invention, i.e., 6-[3-(1-adamantyl)-4-methoxyphenyl]-2-naphthoic acid, 2-[3-(1-adamantyl)-4-methoxyphenyl]-5-benzimidazole carboxylic acid, and 6-[3-(1-adamantyl)-4,5-methylenedioxyphenyl]-2-naphthoic acid, a control (DMSO), and a control retinoid (all-trans retinoic acid) on the proliferation of several human cervical cancer cell lines (C33A cells and Caski cells).

[5] = system: human pancreatic cancer BxPC-3 tumor cells; test: Human xenograft mouse animal model, pancreatic cancer BxPC-3; format: in vivo; settings: 80 mg/kg intraperitoneally, starting 28 days after inoculation; compared to vehicle control group; FIG. 5
Experimental: The anti cancer activity of a compound according to the invention, 6-[3-(1-adamantyl)-4,5-methylenedioxyphenyl]-2-naphthoic acid was also evaluated in a human xenograft mouse animal model containing human pancreatic cancer BxPC-3 tumor cells. Starting twenty-eight days after inoculation of tumor cells, said xenograft containing mice were administered the retinoid compound intraperitoneally at a dosage of 80 mg/kg body weight. Also, a control group of said mice was inoculated under similar conditions with the pharmaceutical vehicle used for formulation (but lacking the retinoid compound).

cancer cells = test: List of active compounds: types of cancers and precancers active against; format: cell-based
Excerpt: As discussed, the adamantyl retinoid derivatives according to the invention which induce apoptosis are useful for treating many different types of cancers.

Compound | induction of apoptosis [1] | activity against human cancers (percentage of surviving cells) [2] | anti-cancer activity [3] | effect on proliferation of human cervical cell lines [4] | tumor size [5] | Types of Cancers and Precancers Active Against (cancer cells)
CC1=C(/C=C/C(C)=C/C=C/C(C)=C/C(=O)O)C(C)(C)CCC1 [all-trans-retinoic acid, reference compound] | did not induce apoptosis significantly | did not give comparable results | did not exhibit similar activity | no significant effect on cell proliferation | – | –
O=C(O)c1ccc2cc(-c3cc4c(c(C56CC7CC(CC(C7)C5)C6)c3)OCO4)ccc2c1 [Compound 6, 6-[3-(1-adamantyl)-4,5-methylenedioxyphenyl]-2-naphthoic acid] | – | – | significant anti-cancer activity | strong inhibitory effect | substantial reduction in tumor size | brain, breast, head and neck,; also recorded: kidney, leukemia, lung, lym-; also recorded: phoma, myeloma, ovarian,; also recorded: prostate, skin, liver, cervical; also recorded: (including, e.g., cervical; also recorded: intraepithelial neoplasia I, II,; also recorded: III),
